Laboratory results reported in PubChem BioAssay AID449762 (Southern Research Specialized Biocontainment Screening …, 2010).
Results filed as inconclusive are left out.

Test system: M. tuberculosis H37Rv growth inhibition, 7H9 media
Test: M. tuberculosis growth inhibition, HTS (AID 449762);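 note: bacterial growth assessed after seven days of incubation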
Details: for IC90: measured here: IC90 growth inhibition

Row | SMILES | IC50 [µM] | IC90 [µM]
1 | Cc1ccc(NCCC(=O)c2ccc(Br)cc2)cc1 | 10.6 | 21.5
2 | Cc1nn2c(NCc3ccccn3)cc(C(C)C)nc2c1-c1ccccc1 | 2.34 | 3.29
3 | COc1ccc(N/C=C/C(=O)c2sc(-c3ccccc3)nc2C)cc1 | 30.8 | 55.4
4 | CCOc1ccc(-c2nn3c(-c4ccccc4)nnc3s2)cc1 | 29.2 | > 100
5 | Cc1ccc(CNC(=O)c2sc3nc4c(c(C(F)(F)F)c3c2N)CCC4)cc1 | 35.7 | 50.9
6 | COC(=O)C(C)Oc1ccc(Cc2ncc(C(F)(F)F)cc2Cl)cc1 (configuration not stated) | 2.43 | 5.77
7 | O=C(NC1CCN(C(=O)N2c3ccccc3Sc3ccccc32)CC1)c1ccccc1F | 86.1 | > 100
8 | Cc1ccccc1C(=O)Nc1ccc(N(C)C)c2ccccc12 | 16.6 | > 100
9 | O=C(c1cnn2c(C(F)F)cc(-c3ccccc3)nc12)N1CCc2ccccc2C1 | 40.4 | 49
10 | CN1CCc2cc3c(c4c2C1Cc1ccccc1-4)OCO3 (configuration not stated) | 1.66 | 1.94
11 | COC(=O)COc1ccc(-c2nn(C)c(=O)c3ccccc23)cc1 | 1.77 | 27.5
12 | O=C(c1cccc(-c2ccco2)c1)N1CCCC(N2CCN(c3ccc(F)cc3)CC2)C1 (configuration not stated) | 52.5 | 78.8
13 | COc1ccc(C(=O)c2c(C(F)(F)F)oc3c2C(=O)c2ccccc2C3=O)cc1OC | 12 | 17.7
14 | CC(=O)CCSc1ncnc2sc(-c3ccccc3)cc12 |  | > 100
15 | c1ccc2c(c1)CCN(c1nc(CN3CCOCC3)nc3sc4c(c13)CCCC4)C2 | 13.8 | 33.6
16 | O=C(Nc1cccc(-c2ccc(N3CCCCC3)nn2)c1)c1ccc(Br)o1 | 16.5 | 42.4
17 | C(=C\c1nccc2c1[nH]c1ccccc12)/c1ccccc1 | 28.5 | 48.2
18 | CC1(C)CN(c2ccccc2)N(C(=O)c2ccc(C#N)cc2)C1=O | 72.4 | > 100
19 | CCN(CC)S(=O)(=O)c1ccc2oc(SCC(=O)Nc3cc(C)on3)nc2c1 | 1.39 | 5.88
20 | C=C(CCC(=O)c1ccccc1)C(=O)c1ccccc1 | 7.32 | 18.7
21 | Cc1cc(/C=N/n2cnnc2)c(C)n1-c1ccc(OCc2ccc(Cl)cc2Cl)cc1 | 7.25 | 15.8
22 | Cc1ccc(CN2CC(C(=O)OCc3ccccc3Cl)CC2=O)cc1 (configuration not stated) | 4.66 | 28.7
23 | CN(C(=O)c1cccc(Nc2ccc(-c3ccc4c(c3)OCCO4)nn2)c1)C1CCCCC1 | 50.8 | > 100

Row | SMILES | IC50 [µM] | IC90 [µM]
24 | O=C1C(c2ccccc2)=[N+]([O-])c2ccccc21 | 95.8 | > 100
25 | Cc1cccc(/C=C/c2onc(C)c2[N+](=O)[O-])n1 | 10.9 | 19.1
26 | O=C(N/N=C\C=C\c1ccc([N+](=O)[O-])o1)c1cccs1 | 0.59 | 0.92
27 | CCC(=O)c1ccc(OCC(O)CN2CCN(c3cccc(C(F)(F)F)c3)CC2)cc1 (configuration not stated) | 19.9 | 28
28 | Cc1ccc(-c2nc3ccsc3c(=O)o2)cc1 | 0.61 | > 100
29 | O=C(c1ccc(-c2ccccc2)c(F)c1)C1CCCN(C(=O)c2cncs2)C1 (configuration not stated) | 35.9 | 46.8
30 | CCCCn1cnc2c(c(-c3ccccc3)c(-c3ccccc3)n2Cc2ccco2)c1=N | 75.3 | 97.4
31 | CCOc1cccc(/C=C/c2ccc3cccc(O)c3n2)c1O | 1.38 | 18.5
32 | CC(=O)Oc1ccc(/C=N\NC(=O)c2cc3c(ccc4ccccc43)o2)cc1 | 58.5 | > 100
33 | COCc1cc(=O)[nH]c(Nc2nc3ccccc3o2)n1 | 1.6 | 7.06
34 | C=CCNC(=S)N/N=C(\C)c1ccccn1 | 7.07 | 17.7
35 | CC(C)(C)c1ccc(C(O)CCCN2CCC(C(O)(c3ccccc3)c3ccccc3)CC2)cc1 (configuration not stated) | 12.2 | 17.4
36 | CCCCNC(=S)Nc1ccc2cn[nH]c2c1 | 11.2 | 21.3
37 | N#CC(C#N)=c1ccc2c(c1)N1C3=C(CCCC3)CC3CCCCC31N=2 (configuration not stated) | 11.5 | 13.1
38 | Cc1[nH]c2ccc(OC(F)(F)F)cc2c1CCNCc1ccc(Cl)cc1 | 10.9 | 19
39 | O=C(C1=C[C@@H](c2csc3ccccc23)C[C@@H](OCCCCO)O1)N1CCN(Cc2ccc3c(c2)OCO3)CC1 | 28.5 | 47.8
40 | CCOc1cccc(C=Nc2cc(C)cc(C)c2O)c1O | 13.6 | 29.2
41 | CCCCCCCNC(=O)c1ccc(N2CCC3(CC2)OCCO3)c([N+](=O)[O-])c1 | 37.9 | 47.2
42 | Cc1ccn2nc(S(=O)(=O)Nc3c(F)cccc3F)nc2n1 | 6.95 | 9.3
43 | Cc1ccsc1/C=C1\SC(N2CCOCC2)=NC1=O | 21.9 | 34.1
44 | O=C(c1ccc(-c2cccc(C(F)(F)F)c2)o1)N1CCN(c2ccccc2O)CC1 | 18.5 | 26.1
45 | CC(C)Cc1nc2oc3c(N4CCN(CCO)CC4)ncnc3c2c2c1CCCC2 | 18.3 | 26.1
46 | CO[C@@H]1[C@@H](OC(N)=O)[C@@H](O)C(Oc2ccc3c(O)c(NC(=O)c4ccc(O)c(CC=C(C)C)c4)c(=O)oc3c2C)OC1(C)C (some centres not stated) | 4.98 | 9.66

Row | SMILES | IC50 [µM] | IC90 [µM]
47 | CSc1nn(-c2ccc(C(=O)OCC(=O)NC(=O)NC(C)C)cc2)c(=S)s1 | 23.1 | 25.9
48 | CCNc1nc(Nc2ccc(C)c(Cl)c2)c2cnn(C)c2n1 | 43.3 | > 100
49 | COC(=O)CCc1nc2c(C#N)c(-c3ccc(Cl)cc3)ccn2n1 | 1.68 | 3.31
50 | COc1ccc(C(=O)Cn2nc(CNc3ccc(Br)cc3)[n+]3c2CCCCC3)cc1 | 9.77 | 13.7
51 | COC(=O)[C@H](CC(C)C)NC(=O)c1cc2c(cn1)[nH]c1ccccc12 | 8.55 | 29.2
52 | CCC(=O)Oc1ccc(C(=O)Nc2ccc3c(c2)C(=O)N(C2CCCCC2)C3=O)cc1 | 21.2 | 44.5
53 | CCCCNC(=O)Nc1nnc(-c2ccc(OCC)cc2)o1 |  | > 100
54 | Cc1csc(NC(=O)CCCC(=O)O)c1-c1nc2ccccc2s1 | 35.8 | 79.6
55 | CC(OC(=O)c1cnc2ccccc2n1)c1ccccc1Cl (configuration not stated) | 13.1 | 37
56 | C/C(=N\NC(=S)NCC(C)(C)C)c1cc(F)cc(F)c1O | 1.22 | 8.86
57 | Cc1ccc(C)c(-c2nn(-c3cc(N4CCN(CCO)CC4)ccc3[N+](=O)[O-])c(=O)c3ccccc23)c1 | 12.7 | 28.7
58 | CNc1nc(-c2ccccn2)nnc1-c1ccccc1 | 12.1 | 19
59 | Cc1c(Cl)c([N+](=O)[O-])nn1Cc1ccc(C(=O)N/N=C\c2cccc(Br)c2)o1 | 66.7 | > 100
60 | Nc1nc(Cl)cc(N2CCC(c3cc(-c4ccc(Cl)cc4Cl)n[nH]3)CC2)n1 | 22.9 | 25.9
61 | O=C(OCC(=O)N1CCCc2ccccc21)c1ccc(S(=O)(=O)C(F)F)cc1 | 24.1 | 38
62 | COc1ccc(C)c2sc(N(CCN(C)C)C(=O)/C=C/c3cccs3)nc12 | 25.2 | 35.9
63 | CCCCCCCC(=O)N/N=C(/C)c1c(O)cc(C)oc1=O |  | > 100
64 | CC1(C)C2CCC1(C)C(OCC[N+](C)(C)CC(=O)OC1CCCCC1)C2 (configuration not stated) | 10.9 | 12.2
65 | O=C(Oc1ccccc1)c1ccccc1OS(=O)(=O)c1ccccc1 | 1.1 | 14.3
66 | CC(C)=N/N=C1/NC(=O)C(Cc2ccccc2)S1 (configuration not stated) | 23.4 | 25.9
67 | COc1ccccc1/C=C/C(=O)Nc1ccc(S(=O)(=O)Nc2cc(C)on2)cc1 | 5.01 | 17.3
68 | CCOC(=O)c1ccc(NC(=O)C(C)Sc2nc(O)c(-c3ccccc3)c(=O)[nH]2)cc1 (configuration not stated) | 5.47 | 22.6
69 | O=C(Nc1ccc(OC(F)(F)F)cc1)c1ccc2c(c1)no[n+]2[O-] | < 0.2 | 0.2

Row | SMILES | IC50 [µM] | IC90 [µM]
70 | Cc1ccc(-c2noc(-c3cc4ccccc4oc3=O)n2)cc1 | 6.7 | > 100
71 | O=C1NCC(O)=C1C=Nc1ccccc1O | 5.93 | 6.49
72 | O=C(NC(=S)N1CCc2ccccc21)c1ccc(Br)o1 | 5.63 | 9.62
73 | N#CC1=C(c2ccccc2)/C(=C/c2ccccc2)OC1=O | 10.2 | 20.1
74 | CCCOc1ccc(-c2cnc(SCC(N)=O)nc2N)cc1 | 12.1 | 50.2
75 | CCCCCCc1cc2cc(C(=O)NCc3ccccc3)c(=N)oc2cc1O | 3.45 | 5.73
76 | CCC(=O)c1ccc(OCC(=O)OCC(=O)c2cc(C)n(C3CC3)c2C)cc1 | 2.41 | 74.8
77 | CC(C)(O)C#Cc1ccc(C(=O)Nc2ccc3c(c2)OCO3)s1 | 1.63 | > 100
78 | COc1c[nH]n(C2CCCCC2)c(=O)c1=O | 11.8 | 18.1
79 | COc1ccc(N2C(=O)C(Cl)=C(Nc3ccccc3O)C2=O)cc1 | 14.2 | 25.7
80 | COc1ccc(/C=N/OCC(=O)OCC(=O)N(C)c2ccccc2)cc1 | 8.22 | 39.1
81 | CC(=O)/C=C(\C)Nc1ccccc1O | 3.57 | 6.18
82 | Cn1/c(=N/NC(=O)c2cccc(OC(F)F)c2)sc2ccccc21 | 2 | 22.7
83 | Cc1cc2c(cc1C)/C(=N/NC(=O)c1ccccn1)CCC2 | 7.91 | 23.2
84 | C/C(=N\NC(=O)c1ccc(O)cc1)c1ccc2c(c1)Nc1ccccc1S2 | 24.8 | 62.8
85 | Cc1cc(C)n2[nH]c(=O)c(N=Nc3cccc(C(F)(F)F)c3)c2n1 | 86.5 | > 100
86 | COC(=O)CCn1c(C)cc(C(=O)COc2ccccc2C(N)=O)c1C | 10.2 | 15.8
87 | CCOc1ccc2nc(N/C(N)=N/C(=S)Nc3cccc(C)c3)nc(C)c2c1 | 5.4 | > 100
88 | COc1cccc(N2CCN(c3ncnc4c3[nH]c3ccccc34)CC2C)c1 (configuration not stated) | 24.2 | 35.5
89 | COCCNC(=S)N/N=C(\C)c1ccc(OC)cc1 | 40.8 | 49.4
90 | O=C(Nc1ccc2nsnc2c1)NC1CCCCC1 | 26 | > 50
